In article PMC7407272, “Induction of Lysosome Membrane Permeabilization as a Therapeutic Strategy to Target Pancreatic Cancer Stem Cells” (Cancers, 2020):
Where two headings read alike, the source gives them in different places.

Tests used:
PDAC2 3D spheres = assay: Viability curves on PDAC2 3D spheres; assay type: cell-based, human; conditions: for EC50: Homo sapiens
Excerpt: The PDAC patient-derived xenograft (PDX) Panc354 (referred to hereafter as PDAC3) was obtained from Dr. Manuel Hidalgo under a Material Transfer Agreement with the Spanish National Cancer Centre (CNIO), Madrid, Spain (Reference no. I409181220BSMH). PDAC1, PDAC2 and PDAC4 PDXs were established from primary patient resected tumors. Samples were provided by the BioBank Hospital Ramón y Cajal-IRYCIS (PT13/0010/0002), integrated in the Spanish National Biobanks Network and they were processed following standard operating procedures with the appropriate approval of the Ethical and Scientific Committees (Control no. No. Control: DE-BIOB-73 AC65, RG.BIOB-96 REV, and CI-BIOB-08-10-01 rev), with informed consent and according to Declaration of Helsinki principles. Primary patient tumors were subcutaneously implanted in immunocompromised female 6- to 8-week-old NU-Foxn1nu nude mice (Envigo, Barcelona, Spain) and subsequently passage in vivo to establish PDX PDAC1, PDAC2 and PDAC4. Primary PDX-derived in vitro cultures were established as previously detailed. Briefly, xenografts were minced, enzymatically digested with collagenase (Stem Cell Technologies) for 60 min at 37 °C and after centrifugation for 5 min at 1800 rpm, the cell pellets were resuspended and cultured in RPMI (1:1; #61870-010; Gibco, Waltham, MA, USA) supplemented with 10% FBS (Invitrogen, Waltham, MA, USA), Pen/Strep (1:100; #1500-063; Gibco, Waltham, MA, USA), and Fungizone (1:250; #15290-018; Gibco, Waltham, MA, USA). Primary cultures were tested for Mycoplasma at least every 4 weeks.
(§1) Pancreatic CSC spheres were generated as previously described in ultra-low attachment plates (Corning) using CSC media: serum-free DMEM/F12 medium (1:1; #21331-020; Gibco, Waltham, MA, USA), supplemented with Pen/Strep (1:100; #1500-063; Gibco, Waltham, MA, USA), Fungizone (1:250; #15290-018; Gibco), L-Glutamine (1:100; #25030-024; Gibco, Waltham, MA, USA), B-27 (1:50; #17504-044; Gibco, Waltham, MA, USA) and basic fibroblast growth factor (FGF-b) (1:5000; Gibco, Waltham, MA, USA). All cell culture was carried out at 37 °C in a 5% CO2 humidified incubator. To quantify spheres of > 40 μm, 1 mL of sample volume was analyzed with a CASY® Cell Counter (Roche Applied Sciences, Mannheim, Germany). The CASY® Cell Counter measuring principle is based on a capillary particle counter with pulse area analysis, that permits the determination of cell count, cell concentration, cell volume (peak), and average cell diameter, specifically diameters of 40–80 μm, 80–120 μm and >120 μm.
Murine embryonic stem cells (mESCs) were plated at 20,000 cells per well in gelatinized 96 well plates. Compounds from the 640 compound ETP library were added by a Beckman FX 96 tip to achieve a final concentration of 5 µM in each well, and each compound was tested in duplicate. Cells were treated for a total of 30 h prior to assessing cell viability using CellTiter 96® AQueous One Solution Cell Proliferation Assay (MTS) assay according to manufacturer’s instructions (G3582, Promega, Madison, WI, USA). Dose response curves were carried out on mESCs under the same conditions using indicated compounds. To test the viability of CSCs, 10,000 PDAC cells were plated in spheroid conditions and immediately treated with indicated compounds and concentrations for the duration of the sphere formation assay. […]

PDAC1 cultures = assay: Sphere formation assay; assay type: cell-based, human; conditions: 1.25 or 2.5 µM
Excerpt: as §1

PDAC3 cultures = assay: Sphere formation assay; assay type: cell-based, human; conditions: 1.25 or 2.5 µM
Excerpt: as §1

PIK3C2G = target: T1, PIK3C2G (Homo sapiens, UniProt O75747); assay: KINOMEscan; assay type: binding; conditions: read-out: % Ctrl
T1 construct: purchased DiscoveRx KINOMEscan

GRK2 = target: T2, GRK2 (Homo sapiens, UniProt P25098); assay: KINOMEscan; assay type: binding; conditions: read-out: % Ctrl
T2 construct: purchased DiscoveRx KINOMEscan
T2 sequence (P25098 whole entry): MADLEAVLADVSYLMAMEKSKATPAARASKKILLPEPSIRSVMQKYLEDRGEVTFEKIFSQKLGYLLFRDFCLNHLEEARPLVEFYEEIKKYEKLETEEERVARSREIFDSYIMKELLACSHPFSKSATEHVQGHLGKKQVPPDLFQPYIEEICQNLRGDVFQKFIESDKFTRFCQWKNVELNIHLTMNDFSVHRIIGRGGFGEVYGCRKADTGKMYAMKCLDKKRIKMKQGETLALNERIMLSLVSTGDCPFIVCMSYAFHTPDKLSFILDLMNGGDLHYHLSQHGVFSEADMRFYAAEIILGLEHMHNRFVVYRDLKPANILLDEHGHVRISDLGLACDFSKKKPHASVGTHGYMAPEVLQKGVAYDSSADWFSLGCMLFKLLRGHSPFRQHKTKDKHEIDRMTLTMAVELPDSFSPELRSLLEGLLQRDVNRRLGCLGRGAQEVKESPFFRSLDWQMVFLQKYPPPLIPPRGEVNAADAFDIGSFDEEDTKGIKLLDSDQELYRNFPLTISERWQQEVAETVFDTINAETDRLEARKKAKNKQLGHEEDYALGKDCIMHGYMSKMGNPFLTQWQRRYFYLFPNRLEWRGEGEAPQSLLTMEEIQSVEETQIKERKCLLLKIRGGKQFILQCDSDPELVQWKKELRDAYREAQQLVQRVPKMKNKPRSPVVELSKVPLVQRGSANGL

PIM2 = target: T3, PIM2 (Homo sapiens, UniProt Q9P1W9); assay: KINOMEscan; assay type: binding; conditions: read-out: % Ctrl
T3 construct: purchased DiscoveRx KINOMEscan
T3 sequence (Q9P1W9 whole entry): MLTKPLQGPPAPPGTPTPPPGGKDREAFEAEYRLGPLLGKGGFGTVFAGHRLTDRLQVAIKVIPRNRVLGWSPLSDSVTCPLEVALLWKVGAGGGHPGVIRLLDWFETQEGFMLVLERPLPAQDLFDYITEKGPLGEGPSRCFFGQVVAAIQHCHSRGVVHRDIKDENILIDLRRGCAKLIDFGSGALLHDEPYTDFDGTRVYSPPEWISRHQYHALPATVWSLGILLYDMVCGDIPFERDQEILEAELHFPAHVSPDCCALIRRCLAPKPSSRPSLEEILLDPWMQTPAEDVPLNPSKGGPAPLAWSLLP

HIPK2 = target: T4, HIPK2 (Homo sapiens, UniProt Q9H2X6); assay: KINOMEscan; assay type: binding; conditions: read-out: % Ctrl
T4 construct: purchased DiscoveRx KINOMEscan

PYK2 = target: T5, PYK2 (Homo sapiens, UniProt Q14289); assay: KINOMEscan; assay type: binding; conditions: read-out: % Ctrl
T5 construct: purchased DiscoveRx KINOMEscan

KIT(D816H) = target: T6, KIT(D816H) (Homo sapiens, UniProt P10721, D816H); assay: KINOMEscan; assay type: binding; conditions: read-out: % Ctrl
T6 construct: purchased DiscoveRx KINOMEscan

RIOK3 = target: T7, RIOK3 (Homo sapiens, UniProt O14730); assay: KINOMEscan; assay type: binding; conditions: read-out: % Ctrl
T7 construct: purchased DiscoveRx KINOMEscan

CLK3 = target: T8, CLK3 (Homo sapiens, UniProt P49761); assay: KINOMEscan; assay type: binding; conditions: read-out: % Ctrl
T8 construct: purchased DiscoveRx KINOMEscan

MARK1 = target: T9, MARK1 (Homo sapiens, UniProt Q9P0L2); assay: KINOMEscan; assay type: binding; conditions: read-out: % Ctrl
T9 construct: purchased DiscoveRx KINOMEscan
T9 sequence (Q9P0L2 whole entry): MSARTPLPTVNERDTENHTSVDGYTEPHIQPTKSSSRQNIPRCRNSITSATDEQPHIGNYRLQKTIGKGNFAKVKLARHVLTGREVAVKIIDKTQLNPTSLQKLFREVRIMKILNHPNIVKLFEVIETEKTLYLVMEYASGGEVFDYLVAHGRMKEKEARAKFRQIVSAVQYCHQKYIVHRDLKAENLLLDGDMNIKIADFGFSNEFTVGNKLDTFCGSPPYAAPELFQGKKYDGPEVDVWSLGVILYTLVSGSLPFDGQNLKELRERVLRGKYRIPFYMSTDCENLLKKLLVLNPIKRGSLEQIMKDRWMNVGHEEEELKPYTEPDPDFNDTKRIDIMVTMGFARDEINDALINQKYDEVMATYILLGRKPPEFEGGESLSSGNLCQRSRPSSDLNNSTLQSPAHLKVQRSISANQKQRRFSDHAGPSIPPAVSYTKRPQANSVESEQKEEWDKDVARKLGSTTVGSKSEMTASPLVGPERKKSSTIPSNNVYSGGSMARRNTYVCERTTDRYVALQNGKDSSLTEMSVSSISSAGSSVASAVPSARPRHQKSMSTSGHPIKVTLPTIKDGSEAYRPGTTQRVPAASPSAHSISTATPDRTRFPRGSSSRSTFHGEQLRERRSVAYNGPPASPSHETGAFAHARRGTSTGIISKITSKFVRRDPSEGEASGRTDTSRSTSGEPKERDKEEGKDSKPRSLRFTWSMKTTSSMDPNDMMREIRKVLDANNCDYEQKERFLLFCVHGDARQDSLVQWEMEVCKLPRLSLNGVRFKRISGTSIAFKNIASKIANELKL

SRPK3 = target: T10, SRPK3 (Homo sapiens, UniProt Q9UPE1); assay: KINOMEscan; assay type: binding; conditions: read-out: % Ctrl
T10 construct: purchased DiscoveRx KINOMEscan
T10 sequence (Q9UPE1 whole entry): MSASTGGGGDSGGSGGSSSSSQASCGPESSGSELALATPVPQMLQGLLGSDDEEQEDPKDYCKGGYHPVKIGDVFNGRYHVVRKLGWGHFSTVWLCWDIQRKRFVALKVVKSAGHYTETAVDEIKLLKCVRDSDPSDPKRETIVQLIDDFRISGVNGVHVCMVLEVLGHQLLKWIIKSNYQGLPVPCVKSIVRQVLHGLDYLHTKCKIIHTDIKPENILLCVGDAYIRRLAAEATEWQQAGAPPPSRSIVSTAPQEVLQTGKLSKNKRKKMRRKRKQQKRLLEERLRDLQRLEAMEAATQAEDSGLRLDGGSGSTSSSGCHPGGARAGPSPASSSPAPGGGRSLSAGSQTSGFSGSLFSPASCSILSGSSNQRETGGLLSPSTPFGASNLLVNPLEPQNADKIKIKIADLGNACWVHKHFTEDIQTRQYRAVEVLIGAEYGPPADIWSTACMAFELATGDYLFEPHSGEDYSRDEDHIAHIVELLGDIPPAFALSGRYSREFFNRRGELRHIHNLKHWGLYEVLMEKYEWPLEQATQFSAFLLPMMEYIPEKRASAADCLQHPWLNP

TRKB = target: T11, TRKB (Homo sapiens, UniProt Q16620); assay: KINOMEscan; assay type: binding; conditions: read-out: % Ctrl
T11 construct: purchased DiscoveRx KINOMEscan

EGFR(L861Q) = target: T12, EGFR(L861Q) (Homo sapiens, UniProt P00533, L861Q); assay: KINOMEscan; assay type: binding; conditions: read-out: % Ctrl
T12 construct: purchased DiscoveRx KINOMEscan
T12 sequence (P00533 25-1210 L861Q): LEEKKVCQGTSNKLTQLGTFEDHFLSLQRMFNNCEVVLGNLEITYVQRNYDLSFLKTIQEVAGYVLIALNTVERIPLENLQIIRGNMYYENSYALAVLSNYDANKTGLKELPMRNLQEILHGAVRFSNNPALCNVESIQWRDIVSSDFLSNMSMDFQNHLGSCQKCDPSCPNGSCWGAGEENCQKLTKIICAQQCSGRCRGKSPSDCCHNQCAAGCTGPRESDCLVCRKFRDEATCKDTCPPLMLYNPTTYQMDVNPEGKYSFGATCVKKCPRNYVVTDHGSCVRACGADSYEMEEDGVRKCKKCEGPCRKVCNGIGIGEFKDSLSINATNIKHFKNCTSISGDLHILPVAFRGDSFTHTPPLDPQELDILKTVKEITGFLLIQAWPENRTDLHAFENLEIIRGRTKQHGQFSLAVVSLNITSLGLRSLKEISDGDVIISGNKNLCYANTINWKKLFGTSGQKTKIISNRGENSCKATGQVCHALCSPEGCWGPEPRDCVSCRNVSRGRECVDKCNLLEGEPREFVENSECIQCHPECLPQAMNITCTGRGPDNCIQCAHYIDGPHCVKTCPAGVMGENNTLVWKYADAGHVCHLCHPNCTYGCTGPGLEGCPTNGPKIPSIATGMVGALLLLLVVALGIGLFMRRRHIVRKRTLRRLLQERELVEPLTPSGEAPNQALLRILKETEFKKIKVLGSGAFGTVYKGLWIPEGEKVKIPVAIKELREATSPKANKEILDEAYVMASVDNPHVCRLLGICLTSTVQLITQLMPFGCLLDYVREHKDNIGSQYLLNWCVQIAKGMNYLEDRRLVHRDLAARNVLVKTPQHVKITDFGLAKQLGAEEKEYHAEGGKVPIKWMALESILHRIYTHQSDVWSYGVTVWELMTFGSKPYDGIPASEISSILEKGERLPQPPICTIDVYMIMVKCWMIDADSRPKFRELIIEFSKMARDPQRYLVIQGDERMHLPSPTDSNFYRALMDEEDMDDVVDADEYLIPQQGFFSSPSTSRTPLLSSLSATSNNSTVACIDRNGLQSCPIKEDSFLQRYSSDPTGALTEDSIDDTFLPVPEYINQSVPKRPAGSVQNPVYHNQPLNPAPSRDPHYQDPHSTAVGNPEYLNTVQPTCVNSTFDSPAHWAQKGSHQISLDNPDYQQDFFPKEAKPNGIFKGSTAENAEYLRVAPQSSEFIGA

MYO3B = target: T13, MYO3B (Homo sapiens, UniProt Q8WXR4); assay: KINOMEscan; assay type: binding; conditions: read-out: % Ctrl
T13 construct: purchased DiscoveRx KINOMEscan
T13 sequence (Q8WXR4 whole entry): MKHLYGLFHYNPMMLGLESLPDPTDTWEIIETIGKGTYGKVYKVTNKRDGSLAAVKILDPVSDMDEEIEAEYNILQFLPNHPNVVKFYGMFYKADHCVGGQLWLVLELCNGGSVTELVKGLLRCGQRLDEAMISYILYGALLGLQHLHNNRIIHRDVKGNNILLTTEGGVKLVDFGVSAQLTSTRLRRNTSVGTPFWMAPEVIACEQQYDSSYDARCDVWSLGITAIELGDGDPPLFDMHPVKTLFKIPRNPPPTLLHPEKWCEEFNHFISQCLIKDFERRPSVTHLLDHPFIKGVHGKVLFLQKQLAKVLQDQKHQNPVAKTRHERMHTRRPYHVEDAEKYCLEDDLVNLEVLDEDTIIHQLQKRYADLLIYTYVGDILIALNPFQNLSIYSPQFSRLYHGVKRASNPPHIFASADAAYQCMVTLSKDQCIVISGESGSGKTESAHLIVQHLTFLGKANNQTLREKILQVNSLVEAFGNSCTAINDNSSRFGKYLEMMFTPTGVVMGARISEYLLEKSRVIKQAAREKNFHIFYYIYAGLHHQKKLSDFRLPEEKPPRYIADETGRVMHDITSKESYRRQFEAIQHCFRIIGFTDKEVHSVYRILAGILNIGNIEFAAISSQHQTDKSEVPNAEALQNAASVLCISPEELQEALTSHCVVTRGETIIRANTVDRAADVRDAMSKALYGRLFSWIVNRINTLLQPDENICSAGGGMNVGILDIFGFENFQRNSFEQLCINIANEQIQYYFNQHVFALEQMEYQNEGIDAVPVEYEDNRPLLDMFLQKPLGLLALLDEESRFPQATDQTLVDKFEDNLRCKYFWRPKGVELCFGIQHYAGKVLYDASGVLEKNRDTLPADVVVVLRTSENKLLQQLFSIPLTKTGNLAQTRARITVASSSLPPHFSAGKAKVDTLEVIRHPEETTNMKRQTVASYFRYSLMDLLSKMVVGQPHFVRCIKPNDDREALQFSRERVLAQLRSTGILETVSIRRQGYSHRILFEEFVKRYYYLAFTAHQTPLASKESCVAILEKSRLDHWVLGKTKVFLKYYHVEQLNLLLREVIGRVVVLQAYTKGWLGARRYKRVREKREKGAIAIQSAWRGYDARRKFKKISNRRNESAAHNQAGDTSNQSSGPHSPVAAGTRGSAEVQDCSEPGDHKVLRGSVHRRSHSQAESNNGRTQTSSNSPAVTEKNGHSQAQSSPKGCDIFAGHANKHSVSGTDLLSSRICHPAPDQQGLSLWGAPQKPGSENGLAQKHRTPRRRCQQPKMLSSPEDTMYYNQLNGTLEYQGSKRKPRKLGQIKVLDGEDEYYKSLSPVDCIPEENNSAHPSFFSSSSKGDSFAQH

EPHB6 = target: T14, EPHB6 (Homo sapiens, UniProt O15197); assay: KINOMEscan; assay type: binding; conditions: read-out: % Ctrl
T14 construct: purchased DiscoveRx KINOMEscan

ERN1 = target: T15, ERN1 (Homo sapiens, UniProt O75460); assay: KINOMEscan; assay type: binding; conditions: read-out: % Ctrl
T15 construct: purchased DiscoveRx KINOMEscan

PIM3 = PIM3 (Homo sapiens, UniProt Q86V86); assay: KINOMEscan; assay type: binding; design: purchased DiscoveRx KINOMEscan; conditions: read-out: % Ctrl

## CN1CCC(CNc2ccc3ncc(C(=O)Nc4cccc(OC(F)(F)F)c4)n3n2)CC1 [Cpd 2]
PDAC2 3D spheres; 100 nM Bafilomycin 5 h pretreatment
  prevention of the effect on PDAC2 CSC survival by Bafilomycin-A: ≈ 3 fold
PDAC2 3D spheres; PDAC-2, 72 h, no Bafilomycin, read-out: EC50 (viability), PDAC2 spheres
  EC50: 3.84 µM
PDAC2 3D spheres; PDAC-2, pretreated with 100 nM Bafilomycin for 5 h, then 72 h, read-out: EC50 (viability), PDAC2 spheres, +Baf
  EC50: 9.14 µM
PDAC1 cultures
  sphere forming capacity: decreased sphere forming capacity
PDAC3 cultures
  sphere forming capacity: decreased sphere forming capacity
PIK3C2G
  remaining binding at 1 µM: 59%
GRK2
  remaining binding at 1 µM: 79%
PIM2
  remaining binding at 1 µM: 72%
HIPK2
  remaining binding at 1 µM: 68%
PYK2
  remaining binding at 1 µM: 95%
KIT(D816H)
  remaining binding at 1 µM: 91%
RIOK3
  remaining binding at 1 µM: 78%
CLK3
  remaining binding at 1 µM: 93%
MARK1
  remaining binding at 1 µM: 100%
SRPK3
  remaining binding at 1 µM: 77%
TRKB
  remaining binding at 1 µM: 89%
EGFR(L861Q)
  remaining binding at 1 µM: 94%
MYO3B
  remaining binding at 1 µM: 100%
EPHB6
  remaining binding at 1 µM: 92%
ERN1
  remaining binding at 1 µM: 79%
PIM3
  remaining binding at 1 µM: 18%

## Fc1ccc(-n2cc(CCCCN3CCC4(CC3)OCc3ccccc34)c3ccccc32)cc1 [siramesine]
PDAC2 3D spheres; PDAC-2, 30 h, read-out: EC50 (viability), PDAC2 spheres
  EC50: 5.98 µM
PDAC1 cultures
  sphere forming capacity: decreased sphere forming capacity
PDAC3 cultures
  sphere forming capacity: decreased sphere forming capacity
